Tested on: skin tissue model
Assay: Skin irritation test: MTT effective time (ET-50) viable cell assay on skin tissue model
Assay type: cell-based
Details: for % Viability: skin tissue
Description: The skin inflammation potential of a cleaning gel of product No. 1 (also known as Double. S Gel (Lot No. 15730A2); hereinafter, referred to as experimental product)) was evaluated using commercially available MTT effective time (ET-50) live cell experiment test and a skin tissue model.
The experiments performed at the Life Science Institute (BioScience Laboratories, Inc.) began on Sep. 2, 2015 and were completed on Sep. 4, 2015. One deviation in SOP generated during the experiments is shown in Tables 1 to 7 below, the protocols and/or SOP deviation recording formats (form number: 99-QA-004) of FIGS. 1 and 2. […] The skin tissue samples were exposed to the experimental product for 1 hour, 4 hours, or 24 hours.
The experimental product was tested undiluted, as provided by the sponsor. Three untreated negative control dermal tissue specimens were exposed for 24 hours.
The first tissue specimen, the second tissue specimen, and the third tissue specimen were exposed to 1.0% Triton X-100 (Lot No. 082615BBA) as a positive control for 1, 4, and 24 hours, respectively.
At the same time as the experimental procedure, MTT control was evaluated, and the evaluation was regarded as a result of direct reduction of the MTT product. […] During the experimental procedure, the frozen tissue was exposed to the experimental product to determine whether the experimental product was effectively washed from tissue.
The absorbance of the specimens was determined using a VERSA Max™ Tunable Microplate Reader (with SOFTmax® PRO Software) set to 570 nm with several […] aliquots of isopropyl alcohol.
Absorbance values were converted into the probabilistic feasibility of tissue culture by SOFTmax® PRO Software. These values were expressed as time-dependent by SOFTmax® PRO Software, and then ET-50 was determined by interpolation. ET-50 is an estimated time when the probabilistic feasibility of tissues falls to 50%.

Triton X-100 [Positive Control]
Irritancy Classification (Expected In-Vivo Irritancy) (from MTT ET-50): Moderate to Mild Irritation | % Viability (1 hour exposure): 66.51% | % Viability (4 hours exposure): 78.40% | % Viability (24 hours exposure): 6.06% | MTT ET-50 (tested undiluted, skin tissue exposed 1, 4, 24 hours, time at which viability falls to 50%, by interpolation): 4.65 h
